The target of this assay is T1, recombinant guanylate cyclase reporter cell line (Rattus norvegicus, UniProt P19686+P20595).
T1 construct: expressed in transfected cells
T1 sequence (P20595 1-619): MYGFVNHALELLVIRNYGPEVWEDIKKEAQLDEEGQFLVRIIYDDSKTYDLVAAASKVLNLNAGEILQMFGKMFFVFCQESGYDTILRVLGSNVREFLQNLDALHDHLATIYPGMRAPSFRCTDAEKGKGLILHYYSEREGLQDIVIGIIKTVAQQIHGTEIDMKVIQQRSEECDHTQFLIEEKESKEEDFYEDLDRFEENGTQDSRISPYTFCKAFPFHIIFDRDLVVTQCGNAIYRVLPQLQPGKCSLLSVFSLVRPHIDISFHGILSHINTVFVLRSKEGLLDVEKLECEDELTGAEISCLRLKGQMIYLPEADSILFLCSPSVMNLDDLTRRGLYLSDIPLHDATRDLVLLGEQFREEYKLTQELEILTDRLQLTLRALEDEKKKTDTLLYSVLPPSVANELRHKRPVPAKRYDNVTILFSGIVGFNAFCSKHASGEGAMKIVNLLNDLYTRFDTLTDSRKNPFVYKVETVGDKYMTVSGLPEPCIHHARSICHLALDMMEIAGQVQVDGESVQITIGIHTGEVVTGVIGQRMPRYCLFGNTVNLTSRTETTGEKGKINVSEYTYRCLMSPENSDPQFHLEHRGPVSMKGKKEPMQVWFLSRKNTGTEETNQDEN
T1 sequence (P19686 1-690): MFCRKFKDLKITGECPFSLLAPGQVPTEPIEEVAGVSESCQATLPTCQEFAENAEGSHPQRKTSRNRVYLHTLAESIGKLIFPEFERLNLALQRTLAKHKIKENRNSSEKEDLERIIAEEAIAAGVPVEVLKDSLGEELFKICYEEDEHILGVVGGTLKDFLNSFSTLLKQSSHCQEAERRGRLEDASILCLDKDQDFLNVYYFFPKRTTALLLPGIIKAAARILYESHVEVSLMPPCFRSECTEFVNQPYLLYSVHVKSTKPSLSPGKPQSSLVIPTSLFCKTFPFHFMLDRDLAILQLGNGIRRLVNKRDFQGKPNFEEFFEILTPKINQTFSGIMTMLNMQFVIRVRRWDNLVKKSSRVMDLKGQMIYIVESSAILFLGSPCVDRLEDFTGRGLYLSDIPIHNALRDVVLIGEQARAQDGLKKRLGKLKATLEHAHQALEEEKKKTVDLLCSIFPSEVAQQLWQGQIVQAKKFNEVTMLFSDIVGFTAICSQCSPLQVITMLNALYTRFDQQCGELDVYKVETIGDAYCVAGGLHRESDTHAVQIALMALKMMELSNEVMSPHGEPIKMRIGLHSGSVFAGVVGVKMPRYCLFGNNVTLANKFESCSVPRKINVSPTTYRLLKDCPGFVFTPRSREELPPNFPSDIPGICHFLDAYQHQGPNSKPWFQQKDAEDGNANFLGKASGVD
The assay is described as follows: B-2. Action on recombinant guanylate cyclase reporter cell line. Format: cell-based. The following applies: MEC = minimal effective concentration; in some cases mean values from individual determinations. The procedure, abridged:
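Reported value is the minimal effective concentration (MEC), in some cases a mean of single runs, taken from a recombinant rat guanylate cyclase reporter cell line.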
Consider `Cc1nc2c(OCc3c(F)cccc3F)cc(Cl)cn2c1C(=O)NCC(C)(N)CC(C)C` (single isomer, unassigned) [Example 226, ent-N-(2-Amino-2,4-dimethylpentyl)-6-chloro-8-[(2,6-difluorobenzyl)oxy]-2-methylimidazo[1,2-a]pyridine-3-carboxamide], for which the MEC was 0.10 µM.

As for `CCCC[C@H](CN1CCCC1)NC(=O)c1c(C)nc2c(OCc3c(F)cccc3F)cccn12` [Example 66, ent-8-[(2,6-difluorobenzyl)oxy]-2-methyl-N-[(2R)-1-(pyrrolidin-1-yl)hexan-2-yl]imidazo[1,2-a]-pyridine-3-carboxamide], the MEC was determined as 1.00 µM.

Take `Cc1nc2c(OCc3c(F)cccc3F)cccn2c1C(=O)NCC(C(C)C)N(C)C` (single isomer, unassigned; ent-8) [Example 188, ent-8-[(2,6-Difluorobenzyl)oxy]-N-[2-(dimethylamino)-3-methylbutyl]-2-methylimidazo[1,2-a]-pyridine-3-carboxamide]: the MEC is 1.00 µM.

On to `Cc1cc(OCc2c(F)cccc2F)c2nc(C)c(C(=O)NCC(N)c3cc(F)c(F)c(F)c3)n2c1` (racemic) [Example 374, rac-N-[2-amino-2-(3,4,5-trifluorophenyl)ethyl]-8-[(2,6-difluorobenzyl)oxy]-2,6-dimethylimidazo[1,2-a]pyridine-3-carboxamide], for which the MEC came out at 1.00 µM.

As for `CCCC(C)(N)CNC(=O)c1c(C)nc2c(OCc3c(F)cccc3F)cc(Br)cn12` (stereo not drawn) [Example 306, ent-N-(2-amino-2-methylpentyl)-6-bromo-8-[(2,6-difluorobenzyl)oxy]-2-methylimidazo[1,2-a]pyridine-3-carboxamide], the MEC was 0.10 µM.

With `Cc1cc(OCc2c(F)cccc2F)c2nc(C)c(C(=O)NC(CN)c3cccc(Br)c3)n2c1` (racemic) [Example 383, rac-N-[2-amino-1-(3-bromophenyl)ethyl]-8-[(2,6-difluorobenzyl)oxy]-2,6-dimethylimidazo[1,2-a]pyridine-3-carboxamide], the MEC came out at 0.30 µM.

On to `Cc1nc2c(OCc3c(F)cccc3F)cccn2c1C(=O)NCCCN(C)C` [Example 87, 8-[(2,6-difluorobenzyl)oxy]-N-[3-(dimethyl-amino)propyl]-2-methylimidazo[1,2-a]-pyridine-3-carboxamide], for which the MEC worked out at 1.00 µM.

For `Cc1cc(OCc2c(F)cccc2F)c2nc(C)c(C(=O)NC[C@H]3CCCN3)n2c1` [Example 116, 8-[(2,6-difluorobenzyl)oxy]-2,6-dimethyl-N-[(2R)-pyrrolidin-2-ylmethyl]imidazo[1,2-a]-pyridine-3-carboxamide], the MEC was 3.00 µM.

For `Cc1cc(OCc2c(F)ccc(F)c2F)c2nc(C)c(C(=O)NCC(C)(C)N)n2c1` [Example 276, N-(2-Amino-2-methylpropyl)-2,6-dimethyl-8-[(2,3,6-trifluorobenzyl)oxy]imidazo[1,2-a]pyridine-3-carboxamide], the MEC turned out to be 0.10 µM.

As to `Cc1cc(OCc2c(F)ccc(F)c2F)c2nc(C)c(C(=O)NCC(C)(N)CCC(F)(F)F)n2c1` (single isomer, unassigned; enantiomer a) [Example 410, ent-N-(2-amino-5,5,5-trifluoro-2-methylpentyl)-2,6-dimethyl-8-[(2,3,6-trifluorobenzyl)oxy]imidazo[1,2-a]pyridine-3-carboxamide (Enantiomer A)], the MEC stood at 0.10 µM.

For the compound `Cc1cc(OCc2c(F)cccc2F)c2nc(C)c(C(=O)NC(CN)c3cccc(OCCO)c3)n2c1` (racemic) [Example 393, rac-N-{2-amino-1-[3-(2-hydroxyethoxy)phenyl]ethyl}-8-[(2,6-difluorobenzyl)oxy]-2,6-dimethylimidazo[1,2-a]pyridine-3-carboxamide], the MEC was 1.00 µM.

For `CCCC(C)(N)CNC(=O)c1c(C)nc2c(OCc3c(F)cccc3F)cc(Cl)cn12` (racemic) [Example 244, rac-N-(2-Amino-2-methylpentyl)-6-chloro-8-[(2,6-difluorobenzyl)oxy]-2-methylimidazo[1,2-a]-pyridine-3-carboxamide], the MEC came out at 0.30 µM.

These data come from patent US9624214B2, “Amino-substituted imidazo[1,2-a]pyridinecarboxamides and their use” (BAYER PHARMA AKTIENGESELLSCHAFT, priority 2012, dated 2017).
